Experimental findings from US20140249135A1, “PIM KINASE INHIBITORS AND METHODS OF THEIR USE” (NOVARTIS AG, priority 2007, published 2014) are described below.

In one assay the target is Pim1 kinase (Homo sapiens, UniProt P11309). Kind of assay: Pim1 ATP depletion assay.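 Note: Luciferase-luciferin luminescence readout of residual ATP after PIM1 transfers phosphate to a peptide substrate, 40 µM ATP added, reaction run to roughly half ATP consumption.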 The assay is classed as biochemical. The note with it: Pim1 ATP depletion assay; read-out: IC50 (μM) PIM1.
The next assay concerns the target Pim2 kinase (Homo sapiens, UniProt Q9P1W9). In words: Pim2 ATP depletion assay.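 Note: Luciferase-based luminescent readout of ATP remaining after PIM2 phosphorylates a BAD peptide, final 5 nM enzyme, 4 µM ATP, 10 µM peptide, 2.5% DMSO, run to roughly half ATP consumption.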 The assay is classed as biochemical. The note with it: read-out: IC50 (μM) PIM2.
The next assay has as its target Pim3 kinase (Homo sapiens, UniProt Q86V86). In words: Pim3 ATP depletion assay. The assay is classed as biochemical. The note with it: read-out: IC50 (μM) PIM3.
Assay [1] relates to KMS 11 (human myeloma cell line). In words: Cell proliferation assay (CellTiter-Glo), KMS 11. The class given is cell-based. The note with it: KMS11 cells, read-out: EC50 (μM) KMS11. The protocol: (§1) KMS 11 (human myeloma cell line), were cultured in IMDM supplemented with 10% FBS, sodium pyruvate and antibiotics. Cells were plated in the same medium at a density of 2000 cells per well into 96 well tissue culture plates, with outside wells vacant, on the day of assay. MM1.s (human myeloma cell line), were cultured in RPMI1640 supplemented with 10% FBS, sodium pyruvate and antibiotics. Cells were plated in the same medium at a density of 5000 cells per well into 96 well tissue culture plates, with outside wells vacant, on the day of assay.
(§2) Test compounds supplied in DMSO were diluted into DMSO at 500 times the desired final concentrations before dilution into culture media to 2 times final concentrations. Equal volumes of 2× compounds were added to the cells in 96 well plates and incubated at 37° C. for 3 days.
(§3) After 3 days plates were equilibrated to room temperature and equal volume of CellTiter-Glow Reagent (Promega) was added to the culture wells. The plates were agitated briefly and luminescent signal was measured with luminometer. The percent inhibition of the signal seen in cells treated with DMSO alone vs. cells treated with control compound was calculated and used to determine EC50 values (i.e., the concentration of a test compound that is required to obtain 50% of the maximum effect in the cells) for tested compounds, as shown in Example 763.

In assay [2] the test system is MM1.s (human myeloma cell line). In words: Cell proliferation assay (CellTiter-Glo), MM1.s. The assay is classed as cell-based. The note with it: MM1.s cells, read-out: EC50 (μM) MM1.s. Here is the method:
as §1, §2, §3

The next assay has as its system HEL 92.1.7 cells. In words: Cell proliferation assay (CellTiter-Glo), HEL 92.1.7. The assay is classed as cell-based. The note with it: Homo sapiens, read-out: EC50 (μM) HEL 92.1.7. The essentials:
(§4)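 CellTiter-Glo luminescence was read after 3-day compound exposure at 37 °C of cells plated at 1000/well in RPMI1640 with 10% FBS. Signal was normalised between DMSO-treated and control-compound-treated wells. EC50 is the concentration giving 50% of maximal effect.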

The next assay relates to PC3 cells. In words: Cell proliferation assay (CellTiter-Glo), PC3. The assay is classed as cell-based. The note with it: Homo sapiens, PC-3. In outline: as §4
Another assay deals with KDR kinase (Homo sapiens, UniProt P35968). Kind of assay: KDR AlphaScreen assay. The note with it: KDR IC50 (μM).
For assay [3], the target named is T1, human full length PKCE enzyme (Homo sapiens, UniProt Q02156).
T1 construct: human full length PKCE enzyme purchased from InVitrogen; purchased InVitrogen
T1 sequence (Q02156 1-737): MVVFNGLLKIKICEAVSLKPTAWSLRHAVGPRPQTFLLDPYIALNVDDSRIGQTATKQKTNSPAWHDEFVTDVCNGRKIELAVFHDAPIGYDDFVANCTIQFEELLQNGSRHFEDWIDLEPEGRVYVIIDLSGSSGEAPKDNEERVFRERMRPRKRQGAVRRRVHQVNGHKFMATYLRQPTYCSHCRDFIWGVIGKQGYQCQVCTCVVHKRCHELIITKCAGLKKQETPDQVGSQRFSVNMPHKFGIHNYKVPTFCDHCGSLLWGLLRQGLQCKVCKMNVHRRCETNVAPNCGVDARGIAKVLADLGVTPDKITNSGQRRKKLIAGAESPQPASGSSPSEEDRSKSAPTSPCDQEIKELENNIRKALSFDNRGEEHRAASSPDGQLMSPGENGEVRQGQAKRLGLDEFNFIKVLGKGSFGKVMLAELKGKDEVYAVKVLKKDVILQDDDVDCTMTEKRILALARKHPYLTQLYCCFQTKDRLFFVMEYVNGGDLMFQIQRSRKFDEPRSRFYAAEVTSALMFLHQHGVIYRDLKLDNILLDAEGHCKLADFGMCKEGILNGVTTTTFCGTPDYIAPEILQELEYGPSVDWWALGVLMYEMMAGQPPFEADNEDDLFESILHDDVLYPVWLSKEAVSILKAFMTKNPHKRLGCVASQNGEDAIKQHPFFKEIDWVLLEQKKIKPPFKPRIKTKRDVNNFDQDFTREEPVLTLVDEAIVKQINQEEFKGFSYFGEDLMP
In words: In vitro PKCE assay. The assay is classed as biochemical. The note with it: 10 nM enzyme, 40 uM peptide substrate, 20 uM ATP, KinaseGlo Plus readout; read-out: PKCε IC50.

Structures are written as SMILES. Some results are limits rather than exact numbers.

Pim1 kinase, sequence (P11309 whole entry): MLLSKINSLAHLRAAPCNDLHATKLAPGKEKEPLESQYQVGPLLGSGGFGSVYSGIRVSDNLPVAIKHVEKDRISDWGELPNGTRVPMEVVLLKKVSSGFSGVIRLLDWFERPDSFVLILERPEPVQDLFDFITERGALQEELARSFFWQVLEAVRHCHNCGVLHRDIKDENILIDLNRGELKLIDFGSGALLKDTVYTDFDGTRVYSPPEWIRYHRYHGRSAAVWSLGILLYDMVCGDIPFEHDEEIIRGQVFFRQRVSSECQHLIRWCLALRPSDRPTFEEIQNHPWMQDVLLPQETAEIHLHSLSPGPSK
Pim2 kinase, sequence (Q9P1W9 whole entry): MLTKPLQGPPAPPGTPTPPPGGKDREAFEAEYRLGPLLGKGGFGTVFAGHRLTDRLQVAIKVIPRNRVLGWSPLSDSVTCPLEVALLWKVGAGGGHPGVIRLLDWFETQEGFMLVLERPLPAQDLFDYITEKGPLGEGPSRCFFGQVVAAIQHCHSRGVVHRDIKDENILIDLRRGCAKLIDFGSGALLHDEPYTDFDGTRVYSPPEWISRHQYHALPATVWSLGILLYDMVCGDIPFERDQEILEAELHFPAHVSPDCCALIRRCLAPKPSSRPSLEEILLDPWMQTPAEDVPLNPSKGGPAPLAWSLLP
KDR kinase, sequence (P35968 20-1356): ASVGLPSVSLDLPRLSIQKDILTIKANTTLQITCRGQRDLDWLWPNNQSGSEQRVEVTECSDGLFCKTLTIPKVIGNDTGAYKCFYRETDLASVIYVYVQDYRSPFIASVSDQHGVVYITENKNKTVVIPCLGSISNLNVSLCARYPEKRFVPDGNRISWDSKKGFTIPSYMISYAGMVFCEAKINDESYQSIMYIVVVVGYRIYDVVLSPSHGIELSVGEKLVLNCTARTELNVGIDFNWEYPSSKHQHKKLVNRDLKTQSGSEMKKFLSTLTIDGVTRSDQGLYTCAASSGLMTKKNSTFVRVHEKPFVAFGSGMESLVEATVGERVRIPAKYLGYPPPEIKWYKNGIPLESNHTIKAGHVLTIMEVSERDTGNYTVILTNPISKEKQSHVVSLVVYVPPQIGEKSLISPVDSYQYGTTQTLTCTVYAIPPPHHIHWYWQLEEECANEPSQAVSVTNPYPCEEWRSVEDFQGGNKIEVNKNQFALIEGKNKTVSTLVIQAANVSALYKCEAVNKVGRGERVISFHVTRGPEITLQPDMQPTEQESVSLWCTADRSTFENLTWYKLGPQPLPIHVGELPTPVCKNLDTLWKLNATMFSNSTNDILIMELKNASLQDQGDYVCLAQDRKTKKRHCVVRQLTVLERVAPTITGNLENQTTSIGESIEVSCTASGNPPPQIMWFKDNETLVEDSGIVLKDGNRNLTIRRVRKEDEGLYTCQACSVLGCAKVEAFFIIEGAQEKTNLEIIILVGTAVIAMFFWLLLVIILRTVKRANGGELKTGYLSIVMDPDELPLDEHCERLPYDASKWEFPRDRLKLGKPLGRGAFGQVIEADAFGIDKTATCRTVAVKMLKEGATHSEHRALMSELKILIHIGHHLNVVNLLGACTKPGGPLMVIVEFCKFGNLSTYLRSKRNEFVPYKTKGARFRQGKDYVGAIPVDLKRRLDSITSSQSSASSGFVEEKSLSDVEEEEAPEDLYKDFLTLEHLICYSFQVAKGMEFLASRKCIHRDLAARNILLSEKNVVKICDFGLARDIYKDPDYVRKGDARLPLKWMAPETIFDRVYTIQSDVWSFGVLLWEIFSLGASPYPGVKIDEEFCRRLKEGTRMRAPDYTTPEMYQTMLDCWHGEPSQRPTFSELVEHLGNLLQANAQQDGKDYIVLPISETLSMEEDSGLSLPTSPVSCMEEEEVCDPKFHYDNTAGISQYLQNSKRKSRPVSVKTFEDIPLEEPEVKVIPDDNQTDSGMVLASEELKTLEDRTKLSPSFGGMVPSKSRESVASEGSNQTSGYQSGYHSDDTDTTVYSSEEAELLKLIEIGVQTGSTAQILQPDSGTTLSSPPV

Consider `Nc1ccc(-c2c(F)cccc2F)nc1C(=O)Nc1cnccc1N1CC[C@H](F)[C@@H](N)C1` [Example 276, 3-Amino-6-(2,6-difluoro-phenyl)-pyridine-2-carboxylic acid (3-amino-4-fluoro-3,4,5,6-tetrahydro-2H-[1,4′]bipyridinyl-3′-yl)-amide], for which the IC50 on Pim1 kinase, on Pim2 kinase and on Pim3 kinase was less than 1 µM in each case. Further, the figures for the EC50 in assay [1] and in [2] were 1 to 5 µM and 5 to 10 µM, respectively.
Consider `Nc1ccc(-c2c(F)cccc2F)nc1C(=O)Nc1cnccc1N1CCCC2(CCNC2)C1` (stereo not shown) [Example 290, 3-Amino-6-(2,6-difluoro-phenyl)-pyridine-2-carboxylic acid [4-(2,7-diaza-spiro[4.5]dec-7-yl)-pyridin-3-yl]-amide], for which the IC50 on Pim1 kinase, on Pim2 kinase and at Pim3 kinase was less than 1 µM throughout. The EC50 in assay [1] and in [2] was 1 to 5 µM in each case.
For the molecule `CC(C)NC(=O)c1ccc(F)c(-c2ccc(N)c(C(=O)Nc3cnccc3N3C[C@@H](N)C[C@@H](F)C3)n2)c1` [Example 292, 3-Amino-6-(2-fluoro-5-isopropylcarbamoyl-phenyl)-pyridine-2-carboxylic acid (3-amino-5-fluoro-3,4,5,6-tetra-hydro-2H-[1,4′]bipyridinyl-3′-yl)-amide], the IC50 on Pim1 kinase, at Pim2 kinase and at Pim3 kinase was less than 1 µM throughout. In addition, the EC50 in assay [1] and in assay [2] was less than 1 µM each time.
Take `CO[C@@H]1C[C@H](N)CN(c2ccncc2NC(=O)c2nc(-c3cc(C(=O)NC(C)C)ccc3F)ccc2N)C1` [Example 298, 3-Amino-6-(2-fluoro-5-isopropylcarbamoyl-phenyl)-pyridine-2-carboxylic acid (3-amino-5-methoxy-3,4,5,6-tetra-hydro-2H-[1,4′]bipyridinyl-3′-yl)-amide]: the IC50 on Pim1 kinase, at Pim2 kinase and at Pim3 kinase was less than 1 µM throughout. In addition, the EC50 in assay [1] and in assay [2] was less than 1 µM throughout.
For the molecule `CO[C@@H]1C[C@H](N)CN(c2ccncc2NC(=O)c2nc(-c3c(F)cccc3F)ccc2N)C1` [Example 300, 3-Amino-6-(2,6-difluoro-phenyl)-pyridine-2-carboxylic acid (3-amino-5-methoxy-3,4,5,6-tetrahydro-2H-[1,4′]bi-pyridinyl-3′-yl)-amide], the IC50 on Pim1 kinase, on Pim2 kinase and at Pim3 kinase was less than 1 µM in each case. Moreover, the EC50 in [1] and in assay [2] was less than 1 µM each time.
As for `Nc1ccc(-c2ccncc2Cl)nc1C(=O)Nc1cnccc1N1CCC[C@H](N)C1` [Example 422, 5-amino-3′-chloro-[2,4′]bi-pyridinyl-6-carboxylic acid ((S)-3-amino-3,4,5,6-tetrahydro-2H-[1,4′]bipyridinyl-3′-yl)-amide], the IC50 is less than 1 µM at Pim1 kinase; less than 1 µM on Pim2 kinase; less than 1 µM on Pim3 kinase; more than 25 µM against KDR kinase; 10 to 25 µM in [3]. For the same molecule, the concentration giving a half-maximal response (EC50) in the assay on HEL 92.1.7 cells was 1 to 5 µM; in the assay with PC3 cells, more than 10 µM.
Turning to `Nc1ccc(-c2cccc(F)c2F)nc1C(=O)Nc1cnccc1N1CCC[C@H](N)C1` [Example 424, 3-amino-6-(2,3-difluoro-phenyl)-pyridine-2-carboxylic acid ((S)-3-amino-3,4,5,6-tetrahydro-2H-[1,4′]bipyridinyl-3′-yl)-amide], the IC50 on Pim1 kinase was less than 1 µM; on Pim2 kinase, less than 1 µM; at Pim3 kinase, less than 1 µM; at KDR kinase, more than 25 µM; in assay [3], 1 to 10 µM. Moreover, the EC50 is 1 to 5 µM in the assay on HEL 92.1.7 cells and 5 to 10 µM in the assay with PC3 cells.
As to `N[C@H]1CCCN(c2ccncc2NC(=O)c2ccc(F)c(-c3ccccc3)n2)C1` [Example 442, 5-Fluoro-6-phenyl-pyridine-2-carboxylic acid (3-amino-3,4,5,6-tetrahydro-2H-[1,4′]bipyridinyl-3′-yl)-amide], the IC50 on Pim1 kinase, on Pim2 kinase and at Pim3 kinase was less than 1 µM throughout. The EC50 in assay [1] lay within 1 to 5 µM; in [2], 5 to 10 µM.
Consider `CC(C)NC(=O)c1ccc(F)c(-c2nc(C(=O)Nc3cnccc3N3CCC[C@H](N)C3)ccc2F)c1` [Example 443, 5-Fluoro-6-(2-fluoro-5-isopropylcarbamoyl-phenyl)-pyridine-2-carboxylic acid (3-amino-3,4,5,6-tetrahydro-2H-[1,4′]bipyridinyl-3′-yl)-amide], for which the IC50 at Pim1 kinase, on Pim2 kinase and at Pim3 kinase was less than 1 µM throughout. Also, the EC50 in [1] was in the range of 1 to 5 µM; in assay [2], 5 to 10 µM.
In the case of `N[C@H]1CCCN(c2ccncc2NC(=O)c2ccc(F)c(-c3c(F)cccc3F)n2)C1` [Example 445], the IC50 at Pim1 kinase and on Pim3 kinase was less than 1 µM throughout. In addition, the EC50 in assay [1] and in [2] was 1 to 5 µM throughout.
As for `Nc1ccc(-c2c(F)cccc2F)nc1C(=O)Nc1cnccc1N1CCC[C@@H](N)C1` [Example 462, 3-Amino-6-(2,6-difluoro-phenyl)-pyridine-2-carboxylic acid (3-amino-3,4,5,6-tetrahydro-2H-[1,4′]bipyridinyl-3′-yl)-amide], the IC50 on Pim1 kinase, at Pim2 kinase and at Pim3 kinase was less than 1 µM each time. In addition, the EC50 in assay [1] and in assay [2] was 1 to 5 µM in each case.
For the molecule `CCCOc1ccc(F)c(-c2ccc(N)c(C(=O)Nc3cnccc3N3CCC[C@H](N)C3)n2)c1F` [Example 491, 3-Amino-6-(2,6-difluoro-3-propoxy-phenyl)-pyridine-2-carboxylic acid (3-amino-3,4,5,6-tetrahydro-2H-[1,4′]bipyridinyl-3′-yl)-amide], the IC50 on Pim1 kinase, at Pim2 kinase and on Pim3 kinase was less than 1 µM each time. Besides, the EC50 in assay [1] and in [2] was 1 to 5 µM each time.
With `CCCOc1ccc(F)c(-c2nc(C(=O)Nc3cnccc3N3CCC[C@H](N)C3)c(N)cc2F)c1F` [Example 494, 3-Amino-6-(2,6-difluoro-3-propoxy-phenyl)-5-fluoro-pyridine-2-carboxylic acid (3-amino-3,4,5,6-tetrahydro-2H-[1,4′]bipyridinyl-3′-yl)-amide], the IC50 at Pim1 kinase, at Pim2 kinase and at Pim3 kinase was less than 1 µM throughout. Further, the EC50 in [1] is less than 1 µM; in assay [2], 1 to 5 µM.
As to `CC(C)Oc1ccc(F)c(-c2nc(C(=O)Nc3cnccc3N3CCC[C@H](N)C3)c(N)cc2F)c1F` [Example 496, 3-Amino-6-(2,6-difluoro-3-isopropoxy-phenyl)-5-fluoro-pyridine-2-carboxylic acid (3-amino-3,4,5,6-tetrahydro-2H-[1,4′]bipyridinyl-3′-yl)-amide], the half-maximal inhibitory concentration (IC50) at Pim1 kinase, at Pim2 kinase and on Pim3 kinase was less than 1 µM each time. Moreover, the EC50 in assay [1] and in assay [2] was less than 1 µM each time.
